From patent US7914785B2, “B-cell depleting agents, like anti-CD20 antibodies or fragments thereof for the treatment of chronic fatigue syndrome” (Bergen Teknologieverforing AS, priority 2009, dated 2011)

Tests used:
[1] = test system: CFS symptoms in patients with chronic fatigue syndrome; assay: Pilot treatment of three CFS patients with Rituximab infusions and weekly oral Methotrexate; format: in vivo, human; details: pilot patient 1, weekly oral low-dose 7.5 to 12.5 mg per week; for clinical response on CFS symptoms: used for 22 weeks
From the text: The symptom score of CFS symptoms which is in a range of 0 to 10 wherein 0 means no symptoms while 10 refers to very severe symptoms of CFS.
Methotrexat (Mtx) is a therapeutic agent with known (but not well understood) immunomodulatory properties.

[2] = test system: B-cells in rheumatoid arthritis patients; details: given orally on a weekly schedule for rheumatoid arthritis; cited from earlier work
CFS patients = details: 99 CFS patients; cited from earlier work
[3] = test system: patients with long-standing fatigue; details: 12 patients treated; cited from earlier work
patients with CFS = details: six patients with CFS; cited from earlier work

**Q.** With CN(Cc1cnc2nc(N)nc(N)c2n1)c1ccc(C(=O)N[C@@H](CCC(=O)O)C(=O)O)cc1 [Methotrexate] as the molecule, how does the “start of CFS symptom recovery after onset of weekly treatment” value [1] read?
**A.** 10 weeks

**Q.** And the “clinical response on CFS symptoms” value [1]?
**A.** significant and moderate clinical response on CFS symptoms

**Q.** What about the “clinical response on CFS symptoms” value ([1]; listed as Mtx) of the same molecule?
**A.** gradual and moderate CFS symptom recovery

**Q.** And the “start of CFS symptom recovery after onset of weekly treatment” value ([1]; listed as Mtx)?
**A.** 12 weeks

**Q.** And the B-cell depletion [2]?
**A.** moderate B-cell depletion

**Q.** With CC[C@H]1OC(=O)[C@H](C)[C@@H](O[C@H]2C[C@@](C)(OC)[C@@H](O)[C@H](C)O2)[C@H](C)[C@@H](O[C@@H]2O[C@H](C)C[C@H](N(C)C)[C@H]2O)[C@](C)(O)C[C@@H](C)CN(C)[C@H](C)[C@@H](O)[C@]1(C)O [azithromycin] as the molecule, how does the “CFS patients with improvement” value (CFS patients) read?
**A.** 59%

**Q.** With CC(C)[C@H](N)C(=O)OCC(CO)OCn1cnc2c(=O)nc(N)[nH]c21 (some centres unmarked) [valganciclovir] as the molecule, how does the “patients with improvement of the symptoms” value [3] read?
**A.** nine

**Q.** With etanercept as the molecule, how does the clinical outcome (patients with CFS) read?
**A.** clinical benefit
